# Results taken from patent US10941138B2, “Quinoline and isoquinoline derivatives for treating pain and pain related conditions” (ESTEVE PHARMACEUTICALS, S.A., priority 2016, dated 2021).
# Molecular target: human α2δ-1 subunit of Cav2.2 calcium channel (Homo sapiens (Human), UniProt P54289)
# Assay: Binding assay to human α2δ-1 subunit of Cav2.2 calcium channel ([3H]-Gabapentin)
# Conditions: Table 1, human α2δ-1 enriched membranes, read-out: Ki (nM) alpha2delta Hum
# Procedure: Binding Assay to Human α2δ-1 Subunit of Cav2.2 Calcium Channel.
# Human α2δ-1 enriched membranes (2.5 μg) were incubated with 15 nM of radiolabeled [3H]-Gabapentin in assay buffer containing Hepes-KOH 10 mM, pH 7.4.
# NSB (non specific binding) was measured by adding 10 μM pregabalin. The binding of the test compound was measured at five different concentrations. After 60 min incubation at 27° C., binding reaction was terminated by filtering through Multiscreen GF/C (Millipore) presoaked in 0.5% polyethyleneimine in Vacuum Manifold Station, followed by 3 washes with ice-cold filtration buffer containing 50 mM Tris-HCl, pH 7.4. Filter plates were dried at 60° C. for 1 h and 30 μl of scintillation cocktail were added to each well before radioactivity reading.
# Readings were performed in a Trilux 1450 Microbeta radioactive counter (Perkin Elmer).
# Chain of human α2δ-1 subunit of Cav2.2 calcium channel (P54289 25-1103): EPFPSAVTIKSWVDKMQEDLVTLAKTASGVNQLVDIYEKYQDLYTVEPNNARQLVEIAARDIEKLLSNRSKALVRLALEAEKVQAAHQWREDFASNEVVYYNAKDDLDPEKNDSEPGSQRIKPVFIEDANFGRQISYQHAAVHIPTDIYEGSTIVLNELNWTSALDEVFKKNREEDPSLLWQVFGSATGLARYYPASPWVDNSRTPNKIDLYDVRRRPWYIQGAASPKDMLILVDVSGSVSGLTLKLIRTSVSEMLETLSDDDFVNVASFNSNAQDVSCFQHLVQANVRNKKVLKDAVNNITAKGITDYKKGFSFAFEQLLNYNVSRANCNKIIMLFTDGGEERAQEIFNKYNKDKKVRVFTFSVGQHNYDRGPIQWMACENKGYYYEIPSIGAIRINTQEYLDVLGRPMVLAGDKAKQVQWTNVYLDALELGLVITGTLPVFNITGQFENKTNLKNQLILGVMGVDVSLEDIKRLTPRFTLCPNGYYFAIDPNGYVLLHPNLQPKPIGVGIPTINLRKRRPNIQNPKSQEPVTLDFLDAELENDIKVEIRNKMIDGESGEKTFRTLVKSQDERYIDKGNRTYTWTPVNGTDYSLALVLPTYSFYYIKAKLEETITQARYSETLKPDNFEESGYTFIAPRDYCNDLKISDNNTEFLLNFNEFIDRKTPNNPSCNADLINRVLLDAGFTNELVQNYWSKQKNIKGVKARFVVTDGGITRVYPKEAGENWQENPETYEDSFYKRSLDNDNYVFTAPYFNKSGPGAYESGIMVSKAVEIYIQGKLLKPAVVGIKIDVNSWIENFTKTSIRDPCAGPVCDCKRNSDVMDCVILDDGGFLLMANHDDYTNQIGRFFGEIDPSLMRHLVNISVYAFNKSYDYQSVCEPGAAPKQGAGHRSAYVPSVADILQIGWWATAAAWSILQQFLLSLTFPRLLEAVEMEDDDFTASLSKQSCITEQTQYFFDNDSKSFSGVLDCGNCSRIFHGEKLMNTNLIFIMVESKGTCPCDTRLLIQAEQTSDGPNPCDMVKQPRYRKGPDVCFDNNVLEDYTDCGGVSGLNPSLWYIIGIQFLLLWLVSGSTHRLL
row,SMILES,Ki [nM]
1,"CN(C)CCC(Oc1nccc2ccccc12)c1cccs1 (stereo not shown) [Example 8, 3-(isoquinolin-1-yloxy)-N,N-dimethyl-3-(thiophen-2-yl)propan-1-amine]",≥ 3000
2,"CNCCC(Oc1cccc2ccncc12)C1CCOCC1 (stereo not shown) [Example 19, 3-(isoquinolin-8-yloxy)-N-methyl-3-(tetrahydro-2H-pyran-4-yl)propan-1-amine]",≥ 3000
3,"CNCCC(Oc1cccc2ncccc12)C1CCOCC1 (stereo not shown) [Example 20, N-methyl-3-(quinolin-5-yloxy)-3-(tetrahydro-2H-pyran-4-yl)propan-1-amine]",≥ 3000
4,"CNCCC(Oc1cccc2ccncc12)c1cccnc1 (stereo not shown) [Example 21, 3-(isoquinolin-8-yloxy)-N-methyl-3-(pyridin-3-yl)propan-1-amine]",≥ 3000
5,"CNCCC(Oc1cccc2ccncc12)c1ccccn1 (stereo not shown) [Example 22, 3-(isoquinolin-8-yloxy)-N-methyl-3-(pyridin-2-yl)propan-1-amine]",≥ 3000
6,"CNCCC(Oc1cccc2cnccc12)c1ccccn1 (stereo not shown) [Example 23, 3-(isoquinolin-5-yloxy)-N-methyl-3-(pyridin-2-yl)propan-1-amine]",≥ 3000
7,"CNCCC(Oc1cccc2ccncc12)c1cccc(C(F)(F)F)n1 (stereo not shown) [Example 24, 3-(isoquinolin-8-yloxy)-N-methyl-3-(6-(trifluoromethyl)pyridin-2-yl)propan-1-amine]",≥ 3000
8,"CNCCC(Oc1cccc2cnccc12)c1cncc(Cl)c1 (stereo not shown) [Example 26, 3-(5-chloropyridin-3-yl)-3-(isoquinolin-5-yloxy)-N-methylpropan-1-amine]",≥ 3000
9,"CNCCC(Oc1cccc2ccncc12)c1ccncc1 (stereo not shown) [Example 27, 3-(isoquinolin-8-yloxy)-N-methyl-3-(pyridin-4-yl)propan-1-amine]",≥ 3000
10,"CNCCC(Oc1cccc2cnccc12)c1ccc(C(F)(F)F)nc1 (stereo not shown) [Example 28, 3-(isoquinolin-5-yloxy)-N-methyl-3-(6-(trifluoromethyl)pyridin-3-yl)propan-1-amine]",≥ 3000
11,"CNCCC(Oc1cccc2cnccc12)c1cc(C(F)(F)F)ccn1 (stereo not shown) [Example 29, 3-(isoquinolin-5-yloxy)-N-methyl-3-(4-(trifluoromethyl)pyridin-2-yl)propan-1-amine]",≥ 3000
12,"CNCCC(Oc1cccc2ncccc12)c1cc(C(F)(F)F)ccn1 (stereo not shown) [Example 31, N-methyl-3-(quinolin-5-yloxy)-3-(4-(trifluoromethyl)pyridin-2-yl)propan-1-amine]",≥ 3000
13,"CNCCC(Oc1cccc2ncccc12)c1ccccn1 (stereo not shown) [Example 33, N-methyl-3-(pyridin-2-yl)-3-(quinolin-5-yloxy)propan-1-amine]",≥ 3000
14,"CNCCC(Oc1cccc2ncccc12)c1ccncc1 (stereo not shown) [Example 35, N-methyl-3-(pyridin-4-yl)-3-(quinolin-5-yloxy)propan-1-amine]",≥ 3000
15,"CNCCC(Oc1cccc2ncccc12)c1cccnc1 (stereo not shown) [Example 36, N-methyl-3-(pyridin-3-yl)-3-(quinolin-5-yloxy)propan-1-amine]",≥ 3000
16,"CNCCC(Oc1cccc2cnccc12)c1cccc(C(F)(F)F)n1 (stereo not shown) [Example 37, 3-(isoquinolin-5-yloxy)-N-methyl-3-(6-(trifluoromethyl)pyridin-2-yl)propan-1-amine]",≥ 3000
17,"CNCCC(Oc1cccc2ncccc12)c1cccc(C(F)(F)F)n1 (stereo not shown) [Example 38, N-methyl-3-(quinolin-5-yloxy)-3-(6-(trifluoromethyl)pyridin-2-yl)propan-1-amine]",≥ 3000
18,"CNCCC(Oc1cccc2ccncc12)c1ccc(C(F)(F)F)nc1 (stereo not shown) [Example 39, 3-(isoquinolin-8-yloxy)-N-methyl-3-(6-(trifluoromethyl)pyridin-3-yl)propan-1-amine]",≥ 3000
19,"CNCCC(Oc1cccc2ncccc12)c1ccc(C(F)(F)F)nc1 (stereo not shown) [Example 40, N-methyl-3-(quinolin-5-yloxy)-3-(6-(trifluoromethyl)pyridin-3-yl)propan-1-amine]",≥ 3000
20,"CNCC[C@H](Oc1cccc2ccnc(C)c12)c1cccs1 [Example 64, (S)-N-methyl-3-((1-methylisoquinolin-8-yl)oxy)-3-(thiophen-2-yl)propan-1-amine]",≥ 3000
21,"CNCCC(Oc1cccc2ccncc12)c1nccs1 (stereo not shown) [Example 70, 3-(Isoquinolin-8-yloxy)-N-methyl-3-(thiazol-2-yl)propan-1-amine]",≥ 3000
22,"CCNCC[C@H](Oc1cccc2cnccc12)c1cccs1 [Example 92, (S)-N-ethyl-3-(isoquinolin-5-yloxy)-3-(thiophen-2-yl)propan-1-amine]",≥ 3000
23,"CNCC[C@H](Oc1cnc2ccccc2c1)c1cccs1 [Example 95, (S)-N-methyl-3-(quinolin-3-yloxy)-3-(thiophen-2-yl)propan-1-amine]",≥ 3000

# Next, values leading:
row,Ki [nM],SMILES
1,≥ 3000,"CNCCC(Oc1ccnc2ccccc12)c1cccs1 (stereo not shown) [Example 4, N-methyl-3-(quinolin-4-yloxy)-3-(thiophen-2-yl)propan-1-amine]"
2,< 100,"CCNCCC(Oc1cccc2cnccc12)c1cccs1 (stereo not shown) [Example 5, N-ethyl-3-(isoquinolin-5-yloxy)-3-(thiophen-2-yl)propan-1-amine]"
3,≥ 3000,"c1ccc(CNCCC(Oc2cccc3cnccc23)c2cccs2)cc1 (stereo not shown) [Example 6, N-benzyl-3-(isoquinolin-5-yloxy)-3-(thiophen-2-yl)propan-1-amine]"
4,≥ 3000,"CNCC[C@@H](Oc1ccc2ncccc2c1)c1cccs1 [Example 7, (R)—N-Methyl-3-(quinolin-6-yloxy)-3-(thiophen-2-yl)propan-1-amine]"
5,< 100,"CNCCC(Oc1cccc2c(C(N)=O)nccc12)c1cccs1 (stereo not shown) [Example 16, 5-(3-(methylamino)-1-(thiophen-2-yl)propoxy)isoquinoline-1-carboxamide]"
6,100 to 500,"CNCCC(Oc1cccc2ncccc12)c1nc(C)cs1 (stereo not shown) [Example 32, N-methyl-3-(4-methylthiazol-2-yl)-3-(quinolin-5-yloxy)propan-1-amine]"
7,500 to 3000,"CNCCC(Oc1cccc2ncccc12)c1ncc(C)s1 (stereo not shown) [Example 34, N-methyl-3-(5-methylthiazol-2-yl)-3-(quinolin-5-yloxy)propan-1-amine]"
8,500 to 3000,"CN(C)CCC(Oc1cccc2cnccc12)c1cccs1 (stereo not shown) [Example 43, 3-(isoquinolin-5-yloxy)-N,N-dimethyl-3-(thiophen-2-yl)propan-1-amine]"
9,500 to 3000,"CNCC[C@H](Oc1ccc2cnccc2c1)c1cccs1 [Example 55, (S)-3-(isoquinolin-6-yloxy)-N-methyl-3-(thiophen-2-yl)propan-1-amine]"
10,100 to 500,"CNCCC(Oc1cccc2ncccc12)c1ccsc1 (stereo not shown) [Example 57, N-methyl-3-(quinolin-5-yloxy)-3-(thiophen-3-yl)propan-1-amine]"
11,< 100,"CNCC[C@@H](Oc1cccc2c(C)nccc12)c1cccs1 [Example 59, (R)-N-methyl-3-((1-methylisoquinolin-5-yl)oxy)-3-(thiophen-2-yl)propan-1-amine]"
12,100 to 500,"CNCC[C@@H](Oc1cccc2ncccc12)c1ccsc1 [Example 63, (R)-N-methyl-3-(quinolin-5-yloxy)-3-(thiophen-3-yl)propan-1-amine]"
13,< 100,"CNCC[C@@H](Oc1cccc2nc(C)cc(C)c12)c1cccs1 [Example 66, (R)-3-((2,4-dimethylquinolin-5-yl)oxy)-N-methyl-3-(thiophen-2-yl)propan-1-amine]"
14,500 to 3000,"CNCCC(Oc1ccc2cccnc2c1)c1cccs1 (stereo not shown) [Example 73, N-methyl-3-(quinolin-7-yloxy)-3-(thiophen-2-yl)propan-1-amine]"
15,100 to 500,"CNCCC(Oc1cccc2c(C#N)nccc12)c1cccs1 (stereo not shown) [Example 75, 5-(3-(Methylamino)-1-(thiophen-2-yl)propoxy)isoquinoline-1-carbonitrile]"
16,100 to 500,"CNCC[C@H](Oc1cccc2ncccc12)c1nccs1 [Example 76, (S)—N-Methyl-3-(quinolin-5-yloxy)-3-(thiazol-2-yl)propan-1-amine]"
17,500 to 3000,"CNCC[C@@H](Oc1cccc2ncccc12)c1nccs1 [Example 77, (R)—N-methyl-3-(quinolin-5-yloxy)-3-(thiazol-2-yl)propan-1-amine]"
18,500 to 3000,"CNCC[C@H](Oc1cccc2ccncc12)c1ccc(F)s1 [Example 80, (S)-3-(5-Fluorothiophen-2-yl)-3-(isoquinolin-8-yloxy)-N-methylpropan-1-amine]"
19,100 to 500,"CCNCC[C@@H](Oc1cccc2cnccc12)c1cccs1 [Example 88, (R)-N-ethyl-3-(isoquinolin-5-yloxy)-3-(thiophen-2-yl)propan-1-amine]"
20,< 100,"CCNCC[C@@H](Oc1cccc2c(C#N)nccc12)c1cccs1 [Example 89, (R)-5-(3-(ethylamino)-1-(thiophen-2-yl)propoxy)isoquinoline-1-carbonitrile]"
21,100 to 500,"CCNCC[C@H](Oc1cccc2ncccc12)c1cccs1 [Example 90, (S)-N-ethyl-3-(quinolin-5-yloxy)-3-(thiophen-2-yl)propan-1-amine]"
22,100 to 500,"CCNCC[C@H](Oc1cccc2c(C#N)nccc12)c1cccs1 [Example 91, (S)-5-(3-(ethylamino)-1-(thiophen-2-yl)propoxy)isoquinoline-1-carbonitrile]"
23,100 to 500,"CCNCC[C@@H](Oc1cccc2ncccc12)c1cccs1 [Example 93, (R)-N-ethyl-3-(quinolin-5-yloxy)-3-(thiophen-2-yl)propan-1-amine]"
